Converted amounts (≈) assume the structure as drawn.
Experiments:
Assay type in all cases: cell-based
Klebsiella pneumoniae [1] = assay: MIC against clinical isolates; details: unit assumed
Proteus vulgaris 3027 = assay: MIC against standard strain, plate method; details: Proteus vulgaris 3027, standard strain; unit assumed
Method in brief: (§1)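 Minimum inhibitory concentrations were determined on agar plates of heart infusion medium (pH 7.4) inoculated with 10^4 cells per plate.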

[2] = system: Staphylococcus aureus 209p; assay: MIC against standard strain, plate method; details: unit assumed
Method in brief: as §1

[3] = system: Pseudomonas aeruginosa I.F.O.; assay: MIC against standard strain, plate method; details: unit assumed
Method in brief: as §1

Escherichia coli NIHJ = assay: MIC against standard strain, plate method; details: unit assumed
Method in brief: as §1

Staphylococcus aureus = assay: MIC against clinical isolates; details: unit assumed
Salmonella typhi = assay: MIC against clinical isolates; details: unit assumed
Salmonella typhi-murium = assay: MIC against clinical isolates; details: unit assumed
Pseudomonas aeruginosa = assay: MIC against clinical isolates; details: unit assumed
Escherichia coli = assay: MIC against clinical isolates; details: unit assumed
Shigella sonnei = assay: MIC against clinical isolates; details: clinical isolate JS 11232; unit assumed
Description: (§2) The minimum inhibitory concentrations (MIC) was determined by the plate method disclosed in "Chemotherapy" (Japan), Vol. 16, (1968), pages 98 - 99. The culture medium used was a Heart infusion agar (pH 7.4). The number of the cells per plate used in the inoculum as 10^4 (10^6 cells/ml).
(§3) MIC was determined in the same manner as in the preceding paragraph (1).

Shigella flexneri = assay: MIC against clinical isolates; details: unit assumed
Description: as §2, §3

Klebsiella pneumoniae [4] = assay: MIC against standard strain, plate method; details: unit assumed
Method in brief: as §1

[5] = clinical isolate GN (number not given; Table 5-3)

| Compound | MIC (Klebsiella pneumoniae [1]; clinical isolate GN 917) [µg/mL] | MIC (Klebsiella pneumoniae [1]; clinical isolate GN 4081) [µg/mL] | MIC (Klebsiella pneumoniae [1]; clinical isolate GN 4117) [µg/mL] | MIC (Proteus vulgaris 3027) [µg/mL] | MIC [2] [µg/mL] | MIC [3] [µg/mL] | MIC (Escherichia coli NIHJ) [µg/mL] | MIC (Staphylococcus aureus; clinical isolate F-5) [µg/mL] | MIC (Staphylococcus aureus; clinical isolate MS 8619) [µg/mL] | MIC (Salmonella typhi; clinical isolate SL 819) [µg/mL] | MIC (Salmonella typhi; clinical isolate SL 2169) [µg/mL] | MIC (Salmonella typhi-murium; clinical isolate SL 858) [µg/mL] | MIC (Salmonella typhi-murium; clinical isolate SL 2136) [µg/mL] | MIC (Pseudomonas aeruginosa; clinical isolate GN 82) [µg/mL] | MIC (Pseudomonas aeruginosa; clinical isolate GN 163) [µg/mL] | MIC (Pseudomonas aeruginosa; clinical isolate GN 221) [µg/mL] | MIC (Pseudomonas aeruginosa; clinical isolate GN 376) [µg/mL] | MIC (Pseudomonas aeruginosa; clinical isolate GN 383) [µg/mL] | MIC (Shigella sonnei) [µg/mL] | MIC (Shigella flexneri; clinical isolate JS 11215) [µg/mL] | also measured |
| --- | --- | --- | --- | --- | --- | --- | --- | --- | --- | --- | --- | --- | --- | --- | --- | --- | --- | --- | --- | --- | --- |
| CCCCN1CCN(C(=O)N[C@@H](C(=O)N[C@@H]2C(=O)N3[C@@H]2SC(C)(C)[C@@H]3C(=O)O)c2ccccc2)C(=O)C1 [compound 14] | 25 (≈ 47 µM) | 50 (≈ 94 µM) | 50 (≈ 94 µM) | < 1.57 | < 1.57 | 25 (≈ 47 µM) | < 1.57 | 200 (≈ 376 µM) | 0.79 (≈ 1.49 µM) | 6.25 (≈ 11.8 µM) | 3.13 (≈ 5.89 µM) | 1.57 (≈ 2.95 µM) | 200 (≈ 376 µM) | 25 (≈ 47 µM) | 25 (≈ 47 µM) | 25 (≈ 47 µM) | 50 (≈ 94 µM) | 50 (≈ 94 µM) | 25 (≈ 47 µM) | 25 (≈ 47 µM) | MIC (Klebsiella pneumoniae [1]; clinical isolate GN 3850): 12.5 µg/mL (≈ 23.5 µM); MIC (Staphylococcus aureus; clinical isolate F-1): 12.5 µg/mL (≈ 23.5 µM); MIC (Pseudomonas aeruginosa; clinical isolate GN 1035): 50 µg/mL (≈ 94 µM); MIC (Pseudomonas aeruginosa; clinical isolate GN 1091): 25 µg/mL (≈ 47 µM); MIC (Pseudomonas aeruginosa; clinical isolate GN 2565): 50 µg/mL (≈ 94 µM); MIC (Pseudomonas aeruginosa; clinical isolate GN 2987): 12.5 µg/mL (≈ 23.5 µM); MIC (Pseudomonas aeruginosa; [5]): 50 µg/mL (≈ 94 µM); MIC (Pseudomonas aeruginosa; clinical isolate S-1): 50 µg/mL (≈ 94 µM); MIC (Pseudomonas aeruginosa; clinical isolate S-2): 50 µg/mL (≈ 94 µM); MIC (Pseudomonas aeruginosa; clinical isolate S-3): 100 µg/mL (≈ 188 µM); MIC (Pseudomonas aeruginosa; clinical isolate S-4): 50 µg/mL (≈ 94 µM); MIC (Escherichia coli; clinical isolate GN 3465): 50 µg/mL (≈ 94 µM); MIC (Escherichia coli; clinical isolate K-2): 12.5 µg/mL (≈ 23.5 µM); MIC (Escherichia coli; clinical isolate K-3): 200 µg/mL (≈ 376 µM) |
| CCCCCCN1CCN(C(=O)N[C@@H](C(=O)N[C@@H]2C(=O)N3[C@@H]2SC(C)(C)[C@@H]3C(=O)O)c2ccccc2)C(=O)C1 [compound 13] | 12.5 (≈ 22.3 µM) | 25 (≈ 44.7 µM) | 25 (≈ 44.7 µM) | < 1.57 | < 1.57 | 25 (≈ 44.7 µM) | < 1.57 | 200 (≈ 357 µM) | 0.79 (≈ 1.41 µM) | 6.25 (≈ 11.2 µM) | 3.13 (≈ 5.59 µM) | 0.79 (≈ 1.41 µM) | 200 (≈ 357 µM) | 50 (≈ 89.3 µM) | 25 (≈ 44.7 µM) | 50 (≈ 89.3 µM) | 50 (≈ 89.3 µM) | 50 (≈ 89.3 µM) | 12.5 (≈ 22.3 µM) | 12.5 (≈ 22.3 µM) | MIC (Klebsiella pneumoniae [4]): < 1.57 µg/mL; MIC (Staphylococcus aureus; clinical isolate F-1): 12.5 µg/mL (≈ 22.3 µM); MIC (Staphylococcus aureus; clinical isolate F-2): 1.57 µg/mL (≈ 2.81 µM); MIC (Pseudomonas aeruginosa; clinical isolate GN 1035): 50 µg/mL (≈ 89.3 µM); MIC (Pseudomonas aeruginosa; clinical isolate GN 1091): 25 µg/mL (≈ 44.7 µM); MIC (Pseudomonas aeruginosa; clinical isolate GN 2565): 50 µg/mL (≈ 89.3 µM); MIC (Pseudomonas aeruginosa; clinical isolate GN 2987): 12.5 µg/mL (≈ 22.3 µM); MIC (Pseudomonas aeruginosa; [5]): 50 µg/mL (≈ 89.3 µM); MIC (Pseudomonas aeruginosa; clinical isolate S-1): 50 µg/mL (≈ 89.3 µM); MIC (Pseudomonas aeruginosa; clinical isolate S-2): 50 µg/mL (≈ 89.3 µM); MIC (Pseudomonas aeruginosa; clinical isolate S-3): 100 µg/mL (≈ 179 µM); MIC (Pseudomonas aeruginosa; clinical isolate S-4): 50 µg/mL (≈ 89.3 µM); MIC (Escherichia coli; clinical isolate GN 3465): 25 µg/mL (≈ 44.7 µM); MIC (Escherichia coli; clinical isolate K-3): 100 µg/mL (≈ 179 µM); MIC (Shigella flexneri; clinical isolate JS 11839): 1.57 µg/mL (≈ 2.81 µM) |
| CC1(C)S[C@@H]2[C@H](NC(=O)C(C(=O)O)c3ccccc3)C(=O)N2[C@H]1C(=O)O (some centres unmarked) [Sodium Carbenicillum, reference compound] | – | – | – | – | – | – | – | – | – | 6.25 | 3.13 | 12.5 | > 200 | – | – | – | – | – | > 200 | > 200 | – |
| CC(=O)N1CCN(C(=O)N[C@@H](C(=O)N[C@@H]2C(=O)N3[C@@H]2SC(C)(C)[C@@H]3C(=O)O)c2ccccc2)C(=O)C1 [compound 1] | 25 (≈ 48.3 µM) | > 200 | 200 (≈ 386 µM) | 3.13 (≈ 6.05 µM) | < 1.57 | 25 (≈ 48.3 µM) | < 1.57 | > 200 | 1.57 (≈ 3.03 µM) | 6.25 (≈ 12.1 µM) | 6.25 (≈ 12.1 µM) | 12.5 (≈ 24.2 µM) | > 200 | 25 (≈ 48.3 µM) | 25 (≈ 48.3 µM) | 25 (≈ 48.3 µM) | 25 (≈ 48.3 µM) | 50 (≈ 96.6 µM) | > 200 | 100 (≈ 193 µM) | MIC (Klebsiella pneumoniae [1]; clinical isolate GN 3850): 25 µg/mL (≈ 48.3 µM); MIC (Staphylococcus aureus; clinical isolate F-2): 3.13 µg/mL (≈ 6.05 µM); MIC (Staphylococcus aureus; clinical isolate MS 8596): 3.13 µg/mL (≈ 6.05 µM); MIC (Staphylococcus aureus; clinical isolate MS 8684): 3.13 µg/mL (≈ 6.05 µM); MIC (Staphylococcus aureus; clinical isolate MS 8713): 3.13 µg/mL (≈ 6.05 µM); MIC (Pseudomonas aeruginosa; clinical isolate GN 1035): 100 µg/mL (≈ 193 µM); MIC (Pseudomonas aeruginosa; clinical isolate GN 1091): 25 µg/mL (≈ 48.3 µM); MIC (Pseudomonas aeruginosa; clinical isolate GN 2565): 50 µg/mL (≈ 96.6 µM); MIC (Pseudomonas aeruginosa; clinical isolate GN 2987): 25 µg/mL (≈ 48.3 µM); MIC (Pseudomonas aeruginosa; [5]): 25 µg/mL (≈ 48.3 µM); MIC (Pseudomonas aeruginosa; clinical isolate S-1): 50 µg/mL (≈ 96.6 µM); MIC (Pseudomonas aeruginosa; clinical isolate S-2): 100 µg/mL (≈ 193 µM); MIC (Pseudomonas aeruginosa; clinical isolate S-3): 50 µg/mL (≈ 96.6 µM); MIC (Pseudomonas aeruginosa; clinical isolate S-4): 50 µg/mL (≈ 96.6 µM); MIC (Escherichia coli; clinical isolate GN 3465): 200 µg/mL (≈ 386 µM); MIC (Escherichia coli; clinical isolate K-2): 25 µg/mL (≈ 48.3 µM); MIC (Escherichia coli; clinical isolate K-3): > 200 µg/mL; MIC (Shigella flexneri; clinical isolate JS 11839): 3.13 µg/mL (≈ 6.05 µM) |

Reference: patent US4110327A, “2,3 Diketo-piperazinocarbonylamino alkanoic acids and derivatives” (Toyama Chemical Co., Ltd., priority 1974, dated 1978)
